According to patent publication US20220349876A1, “USE OF DKK1 INHIBITOR IN PREVENTION AND/OR TREATMENT OF TUMOR CACHEXIA AND DISEASES ASSOCIATED WITH DIABETES” (SHANGHAI DONGTSU BIOSCIENCES CO., LTD., priority 2019, published 2022):
Entries after “also recorded” stand apart in the source; their conditions may differ.

Legend:
[1] = system: HUVEC cells; assay: γH2AX DNA damage response in HUVEC cells (Western blot); type: cell-based
Method: (2) The transfection system of a 3.5 cm petri dish was prepared as follows: 1 μl of siRNA Oligo/Red (concentration of the original solution was 20 μM) was added to an EP tube containing 250 μl of pure Opti-MEM and mixed, and 1.5 μl of RNAiMAX (transfection Reagent) was added to the flow tube containing 250 μl of pure Opti-MEM and mixed, and then all the liquid in the EP tube was added to the flow tube and mixed, and allowed to stand at room temperature for 15 min.
(3) The prepared transfection system was added to a 3.5 cm culture dish, and the cells were cultured for 24-48 h, then the samples were collected and the total cell protein was extracted, and the knockdown effect of the gene was identified by Western Blotting.
(3) Add 150 μl of total protein lysate to each cell sample to make the lysate fully contact with the cells, scrape off the cell lysate with a scraper, collect it into a pre-cooled EP tube, and take an ice bath for 15 min.
(§1) Protein electrophoresis gels are double-layered gels, including an upper stacking gel and a lower separating gel. The concentration of the stacking gel is 5%, and the concentration of the separating gel is determined according to the molecular weight of the target protein. In this study, large molecular weight proteins (LRP5/6, β-catenin, β-arrestin1/2) used 8%-5% double-layer gel, and small molecular weight proteins (γH2AX, p53, p21, Bcl-2, Bax, Cleaved Caspase-3) used 12%-5% double-layer gel. In addition, the number of wells (10 wells or 15 wells) and thickness (1 mm or 1.5 mm) of the preparation gel were selected according to the number and volume of protein samples loaded. The gel formulation is shown in the experimental material section, and the preparation steps are as follows: […]

[2] = system: β-arrestin1/2; assay: β-arrestin1/2 translocation in HUVEC cells (Western blot); type: cell-based; settings: BIM-46187 pretreatment 1 μM for 30 min
Method: (5) Add 100 μl (cell) or 200 μl (tissue) A solution to each sample, and resuspend the cell pellet with a pipette to completely disperse the pellet. The tissue pellet should be fully homogenized on ice with a homogenizer, and the ice bath should be used for 15 min.
(10) Add 50 μl (cells) or 100 μl (tissue) B solution to each sample, resuspend the pellet in Vortex at the highest speed for 10 s, ice bath for 10 min, and repeat twice to fully extract membrane proteins.
as §1

[3] = system: wild-type mice heart; assay: Local injection of Dkk1 protein into the heart combined with MDC or BIM-46187; type: in vivo, mouse
Method: In the experiment of local injection of Dkk1 purified protein into the heart combined with MDC intervention, 10-week-old wild-type male mice were selected, the left chest was depilated, and intraperitoneal injection of MDC (diluted in sterile PBS, 10 mg/kg) or the corresponding volume of DMSO (diluted in sterile PBS) and injected at the same time every day thereafter. After 1 h of MDC intervention, cardiac Dkk1 protein injection was performed. The mice were given continuous inhalation anesthesia with 1% isoflurane and oxygenated with a ventilator, and then the fourth intercostal space near the sternum was opened to expose the heart. Using a 200 μl microsyringe, Dkk1 (10 μg of Dkk1 per heart, dissolved in 30 μl PBS) or an equal volume of PBS was injected locally at three sites in the heart. Of these, two sites are on the border around the left ventricle, and one site enters the myocardium of the left ventricle. After the injection, the wound was sutured, the anesthesia was removed, and the mice were awake. After MDC was continuously intervened for 2 days, the mice were anesthetized and the materials were collected.
In addition to injecting Dkk1 protein alone into the heart, we also need to perform experiments of local injection of Dkk1 combined with BIM-46187 into mouse hearts. According to the experimental grouping, it was divided into cardiac injections of four different solutions, including PBS, Dkk1, BIM-46187, and a mixture of Dkk1 and BIM-46187. The dosage of Dkk1 per heart is 10 μg, and the dosage of BIM-46187 is 2.4 ng, diluted with 30 μl PBS and then injected into the heart. The specific operation steps are the same as above. After the injection, the wound was sutured, the anesthesia was removed, and the mice were awake. Two days after the injection, the mice were anesthetized and the materials were collected.

[4] = system: STZ-induced diabetic mice; assay: STZ-induced type 1 diabetes mouse model with insulin or MDC rescue; type: in vivo
Method: STZ-induced diabetes is a chemical modeling method for diabetes. Its full name is streptozotocin, which is a broad-spectrum antibiotic isolated from achromatic streptomycin. It can selectively damage islet 13 cells in a short period of time, causing 13 cell necrosis, resulting in varying degrees of blood insulin drop and blood sugar rise, resulting in insulin-dependent type 1 diabetes mellitus. […] Modelling criteria are non-fasting blood glucose values above 13.8 mM (250 mg/dl). The modeling steps are as follows: (4) According to the body weight, mice in the model group were injected intraperitoneally with 2% STZ-citric acid solution (160 mg/kg), and the mice in the control group were intraperitoneally injected with the corresponding volume of citrate buffer. 2 h after the injection, the mice were fed back. […] Specific steps are as follows: (3) According to the body weight, the insulin rescue group was subcutaneously injected with diluted insulin (1 U/kg/day), once a day at the same time for 7 consecutive days, and the control group was given a corresponding volume of normal saline. […] Body weight and random blood glucose were measured at different time points after injection. […] (1) Sample preparation: Store the freshly obtained mouse blood in an EDTA anticoagulation tube, stand at room temperature for 10 min, centrifuge at 1000 g for 15 min, and collect the supernatant, namely plasma. If it cannot be detected immediately, it should be subpackaged and stored at −80° C. to avoid repeated freezing. If precipitation occurs during storage, it should be fully thawed at room temperature before use, and centrifuged again.

[5] = system: CT26 tumor-bearing mice; assay: Tumor cachexia in CT26 tumor-bearing mice: tumor-free body weight, muscle weight, muscle membrane proteins; type: in vivo, mouse
[6] = system: LRP6 and Kremen2; assay: Intramuscular injection of Dkk1, Western blot of membrane LRP6 and Kremen2; type: in vivo, mouse; settings: simultaneous injection with Dkk1
Method: Wild-type mice and β-arrestin2+/−KO mice were injected into the left quadriceps (0.25 mg/kg) and an equal volume of PBS was injected into the right leg as controls. MDC (10 mg/kg), IGFBP-4/H95P (1.7 mg/kg) or PBS were injected in combination with Dkk1 as a control to observe the effects of drugs on Dkk1-induced signal transduction. After 48 hours, the mice were sacrificed, and the left and right quadriceps were taken to measure the […].
Membrane proteins were extracted according to the instructions of Membrane Protein Extraction Kit (Sangon Biotech, China). Western blot analysis omitted. Antibodies for WB analysis were purchased from Cell Signaling Technology and Proteintech.

N[C@@H](CSSC[C@H](N)C(=O)N1CCn2cc(-c3ccccc3)nc2[C@@H]1CC1CCCCC1)C(=O)N1CCn2cc(-c3ccccc3)nc2[C@@H]1CC1CCCCC1 [BIM-46187]
Dkk1-induced γH2AX activation ([1]; BIM-46187 pretreatment 1 μM, 30 min): inhibited
Dkk1-induced translocation of β-arrestin1/2 [2]: able to prevent Dkk1-induced translocation of β-arrestin1/2
Dkk1-induced cardiac β-arrestin1/2 translocation ([3]; Dkk1 intracardiac injection with MDC or BIM-46187): inhibited; also recorded: significantly prevent Dkk1 direct endocytosis of LRP5/6-induced cardiac β-arrestin1/2 translocation changes
Dkk1-induced cardiac changes (LRP5/6, γH2AX, p53, p21) ([3]; Dkk1 intracardiac injection with MDC pretreatment or combined with BIM-46187): effectively inhibit Dkk1-induced cardiac injury; also recorded: significantly prevent

insulin
blood 8-OHdG (ELISA) ([4]; STZ diabetic mice): greatly attenuated
blood glucose concentration ([4]; STZ diabetic mice): reduces STZ-induced blood glucose elevation; also recorded: decreased from the first day of treatment and remained at a low level
body weight loss of diabetic mice ([4]; STZ diabetic mice): promoted the gradual recovery of the weight loss; also recorded: suppressed
blood Dkk1 (ELISA) ([4]; STZ diabetic mice, daily insulin): brought high blood Dkk1 concentrations back to basal levels; also recorded: at the basal level
cardiac p53, p21, Bax/Bcl-2 and Cleaved Caspase-3 ([4]; STZ diabetic mice, heart): greatly attenuated
cardiac γH2AX ([4]; STZ diabetic mice, heart): decrease in γH2AX signaling
damage to myocardial structure (HE staining) ([4]; STZ diabetic mice, heart): prevented
translocation of cardiac β-arrestin1/2 in diabetic hearts ([4]; STZ diabetic mice, heart): able to reverse this translocation
LRP5/6 on the cardiac membrane ([4]; STZ diabetic mice, heart, Western blot): started to be up-regulated
translocation of insulin receptors on the cardiac membrane or in the plasma ([4]; substance alone (FIG. 19G)): does not induce translocation of insulin receptors

B1: IGFBP4/H95P: recombinant mutant IGFBP4/H95P protein, which lost its IGF-binding ability, can bind to LRP6 on the membrane and prevent Dkk1 signaling (protein, UniProt P22692 22-258, looked up, variant H95P)
Insulin-like growth …: DEAIHCPPCSEEKLARCRPPVGCEELVREPGCGCCATCALGLGMPCGVYTPRCGSGLRCYPPRGVEKPLHTLMPGQGVCMELAEIEAIQESLQPSDKDEGDHPNNSFSPCSAHDRRCLQKHFAKIRDRSTSGGKMKVNGAPREDARPVPQGSCQSELHRALERLAASQSRTHEDLYIIPIPNCDRNGNFHPKQCHPALDGQRGKCWCVDRKTGVKLPGGLEPKGELDCHQLADSFRE
loss of body weight and muscle weight ([5]; listed as IGFBP4): reverse tumor-induced loss of tumor-free body weight and muscle atrophy
loss of body weight and muscle weight ([5]; listed as IGFBP-4/H95P): completely prevents the decrease in body weight and muscle weight
Dkk1-induced endocytosis / downregulation of membrane LRP6 and Kremen2 [6]: inhibit downregulation of membrane LRP6 expression induced by Dkk1

B2: LRP6N: soluble protein of the extracellular segment of LRP6 (LRP6 ectodomain) (protein, UniProt O75581 20-1370, looked up)
extracellular domain: APLLLYANRRDLRLVDATNGKENATIVVGGLEDAAAVDFVFSHGLIYWSDVSEEAIKRTEFNKTESVQNVVVSGLLSPDGLACDWLGEKLYWTDSETNRIEVSNLDGSLRKVLFWQELDQPRAIALDPSSGFMYWTDWGEVPKIERAGMDGSSRFIIINSEIYWPNGLTLDYEEQKLYWADAKLNFIHKSNLDGTNRQAVVKGSLPHPFALTLFEDILYWTDWSTHSILACNKYTGEGLREIHSDIFSPMDIHAFSQQRQPNATNPCGIDNGGCSHLCLMSPVKPFYQCACPTGVKLLENGKTCKDGATELLLLARRTDLRRISLDTPDFTDIVLQLEDIRHAIAIDYDPVEGYIYWTDDEVRAIRRSFIDGSGSQFVVTAQIAHPDGIAVDWVARNLYWTDTGTDRIEVTRLNGTMRKILISEDLEEPRAIVLDPMVGYMYWTDWGEIPKIERAALDGSDRVVLVNTSLGWPNGLALDYDEGKIYWGDAKTDKIEVMNTDGTGRRVLVEDKIPHIFGFTLLGDYVYWTDWQRRSIERVHKRSAEREVIIDQLPDLMGLKATNVHRVIGSNPCAEENGGCSHLCLYRPQGLRCACPIGFELISDMKTCIVPEAFLLFSRRADIRRISLETNNNNVAIPLTGVKEASALDFDVTDNRIYWTDISLKTISRAFMNGSALEHVVEFGLDYPEGMAVDWLGKNLYWADTGTNRIEVSKLDGQHRQVLVWKDLDSPRALALDPAEGFMYWTEWGGKPKIDRAAMDGSERTTLVPNVGRANGLTIDYAKRRLYWTDLDTNLIESSNMLGLNREVIADDLPHPFGLTQYQDYIYWTDWSRRSIERANKTSGQNRTIIQGHLDYVMDILVFHSSRQSGWNECASSNGHCSHLCLAVPVGGFVCGCPAHYSLNADNRTCSAPTTFLLFSQKSAINRMVIDEQQSPDIILPIHSLRNVRAIDYDPLDKQLYWIDSRQNMIRKAQEDGSQGFTVVVSSVPSQNLEIQPYDLSIDIYSRYIYWTCEATNVINVTRLDGRSVGVVLKGEQDRPRAVVVNPEKGYMYFTNLQERSPKIERAALDGTEREVLFFSGLSKPIALALDSRLGKLFWADSDLRRIESSDLSGANRIVLEDSNILQPVGLTVFENWLYWIDKQQQMIEKIDMTGREGRTKVQARIAQLSDIHAVKELNLQEYRQHPCAQDNGGCSHICLVKGDGTTRCSCPMHLVLLQDELSCGEPPTCSPQQFTCFTGEIDCIPVAWRCDGFTECEDHSDELNCPVCSESQFQCASGQCIDGALRCNGDANCQDKSDEKNCEVLCLIDQFRCANGQCIGKHKKCDHNVDCSDKSDELDCYPTEEPAPQA
modifications: extracellular domain
γH2AX signaling enhanced by H2O2 in the presence of Dkk1 ([1]; Dkk1 then H2O2 50 μM): significantly attenuated
H2O2-activated γH2AX signaling in control and β-catenin-knockdown cells ([1]; H2O2 50 μM): no effect
γH2AX signaling in MESD knockdown cells enhanced by H2O2 ([1]; H2O2 50 μM, LRP6N pretreatment): significantly attenuats this change
γH2AX signaling of LRP5/6 knockdown cells further activated by H2O2 ([1]; H2O2 50 μM, LRP6N pretreatment): significantly attenuated
H2O2-induced γH2AX activation ([1]; H2O2 50 μM, without Dkk1): does not prevent H2O2-induced γH2AX activation
γH2AX upregulation induced by knockdown of LRP5/6 ([1]; LRP6N pre-added to culture medium): reverses cellular DNA damage induced by knockdown of LRP5/6; also recorded: significantly attenuated
γH2AX response by the substance itself ([1]; no Dkk1, no H2O2): does not elicit γH2AX responses
Dkk1-induced γH2AX activation ([1]; pretreatment with MDC or LRP6N protein): inhibits Dkk1-induced γH2AX activation
